# Experimental data published in US6258830A, “Stable gel formulation for topical treatment of skin conditions” (Allergan Sales, Inc., priority 1999, dated 2001).
# Key:
# [1] = Solubility of AGN in PEG 400; assay type: physicochemical; conditions: peg 400, organic solvent or mixture
# [2] = Stability of AGN formulations; assay type: physicochemical
# [3] = Saturated solubility of AGN in the vehicle of the gels (HPLC), with Student's t-test against gel B; assay type: physicochemical; conditions: for solubility: gel vehicle with propionic acid, propionic acid for carbomer
# Protocol: To determine the saturated solubility of the drug in the vehicle of each of the 18 gel formulations, solvent systems containing the same ingredients as the gels were prepared. The saturated solubility was determined once in solutions of the vehicle without carbomer and base, and another time by substituting propionic acid for carbomer in order to ease filtration of the solution while keeping the ionic strength of the solution as close to that of the gel as possible. The solutions were filtered through a 0.45 μm filter to remove any crystals which may have formed. The resulting solutions were then diluted and their drug content was assayed using High Performance Liquid Chromatography (HPLC) as described in Method HL036.
# (§1) The saturated solubility values, and slopes of the line obtained from the plot of % drug released vs. square root of time for each gel were analyzed statistically. […] RS/Discover® was used to calculate equations which fit the data and to construct response surfaces.
# [4] = In vitro release of AGN from the 0.1% gels, slope of % drug released vs. square root of time; assay type: physicochemical; conditions: Table XVIII, beyond release of 10% of the drug
# Protocol: The release of AGN through each of the 0.1% gels was studied using a previously developed release method. The collected fractions were then assayed directly using HPLC Method HL036.
# The data generated from the assay of the collected fractions for each gel were used to plot the release profile of the drug as the % drug released vs. square root of time. For each release profile, the slope of the linear region containing at least 6 points was calculated using linear regression. The standard deviation and correlation coefficient of each slope was also calculated.
# as §1
# Drug release was studied from all […] formulated gels as described previously. The release profiles for each gel were an average of six runs, and were plotted as % Drug released vs. Square root of time.
# In order to compare the release rates of drug from each formulation, the slope of the linear portion of the plot of % Drug released vs. Square root of time was computed for each of the 18 gels. The slope for each plot was obtained as an average of six runs and based on a correlation coefficient (R^2)>0.94800.
# [5] = Solubility of AGN in various aqueous solutions at 35° ± 0.5° C. (Table I); assay type: physicochemical
# [6] = Treatment of acne and psoriasis; design: species or system humans; conditions: in vivo
smiles,measurement,setting,value
CCOC(=O)c1ccc(C#Cc2ccc3c(c2)C(C)(C)CCS3)nc1 [AGN],solubility,[1],2200 µg/mL
same,stabilization of alcoholic solutions containing AGN,[2]; alcoholic solutions with BHT (preformulation report),stabilized by BHT
same,stability of laboratory formulation of AGN,[2]; prepared without ascorbic acid,poor stability
same,drug present in the aqueous based gel in the form of solid particles,[3]; from solubility data,approximately 90%
same,solubility,"[3]; hexylene glycol 0%, polysorbate 40 0.0%, poloxamer 407 0.0%",14.5 ± 0.3 µg/mL
same,solubility,"[3]; hexylene glycol 0%, polysorbate 40 0.0%, poloxamer 407 0.2%",67.9 ± 4.4 µg/mL
same,solubility,"[3]; hexylene glycol 0%, polysorbate 40 0.0%, poloxamer 407 0.4%",87.4 ± 6.6 µg/mL
same,solubility,"[3]; hexylene glycol 0%, polysorbate 40 0.2%, poloxamer 407 0.0%",52.3 ± 2.7 µg/mL
same,solubility,"[3]; hexylene glycol 0%, polysorbate 40 0.2%, poloxamer 407 0.2%",69.7 ± 3.2 µg/mL
same,solubility,"[3]; hexylene glycol 0%, polysorbate 40 0.2%, poloxamer 407 0.4%",80 ± 4 µg/mL
same,solubility,"[3]; hexylene glycol 0%, polysorbate 40 0.4%, poloxamer 407 0.0%",89.3 ± 8.8 µg/mL
same,solubility,"[3]; hexylene glycol 0%, polysorbate 40 0.4%, poloxamer 407 0.2%",77.5 ± 0.8 µg/mL
same,solubility,"[3]; hexylene glycol 0%, polysorbate 40 0.4%, poloxamer 407 0.4%",86.7 ± 6 µg/mL
same,solubility,"[3]; hexylene glycol 2%, polysorbate 40 0.0%, poloxamer 407 0.0%",20.9 ± 1.7 µg/mL
same,solubility,"[3]; hexylene glycol 2%, polysorbate 40 0.0%, poloxamer 407 0.2%",73.7 ± 9 µg/mL
same,solubility,"[3]; hexylene glycol 2%, polysorbate 40 0.0%, poloxamer 407 0.4%",86.3 ± 2.6 µg/mL
same,solubility,"[3]; hexylene glycol 2%, polysorbate 40 0.2%, poloxamer 407 0.0%",75.9 ± 3.5 µg/mL
same,solubility,"[3]; hexylene glycol 2%, polysorbate 40 0.2%, poloxamer 407 0.2%",93.8 ± 0.1 µg/mL
same,solubility,"[3]; hexylene glycol 2%, polysorbate 40 0.2%, poloxamer 407 0.4%",102 ± 2.9 µg/mL
same,solubility,"[3]; hexylene glycol 2%, polysorbate 40 0.4%, poloxamer 407 0.0%",98 ± 11.7 µg/mL
same,solubility,"[3]; hexylene glycol 2%, polysorbate 40 0.4%, poloxamer 407 0.2%",130 ± 6.2 µg/mL
same,solubility,"[3]; hexylene glycol 2%, polysorbate 40 0.4%, poloxamer 407 0.4%",118 ± 3.8 µg/mL
same,rate of drug release over time,[4],remains constant even after three hours
same,solubility,"[5]; 0.07% Polysorbate 40, 35° C.",3.7 ± 0.6 µg/mL
same,solubility,"[5]; 0.15% Polysorbate 40, 35° C.",9.2 ± 1.4 µg/mL
same,solubility,"[5]; 0.30% Polysorbate 40, 35° C.",18.3 ± 1.8 µg/mL
same,solubility,"[5]; 0.50% Polysorbate 40, 35° C.",33.2 ± 0.3 µg/mL
same,solubility,"[5]; 1% Oleth-20/Water, 35° C.",73.3 ± 3 µg/mL
same,solubility,"[5]; 2% Oleth-20/Water, 35° C.",149.2 ± 0.6 µg/mL
same,solubility,"[5]; 4% Oleth-20/Water, 35° C.",311 ± 7 µg/mL
same,Avg. Solubility,"[5]; 20% Ethanol/Water, 35° C.",Not Detected
same,Avg. Solubility,"[5]; 20% PEG-400/Water, 35° C.",Not Detected
same,solubility,"[5]; 96% Oleth-20/Water, 35° C.",435.2 ± 1.1 µg/mL
same,Avg. Solubility,"[5]; 100% Water, 35° C.",Not Detected
same,solubility,"[5]; organic solvent or mixture, 40% Ethanol/Water, 35° C.",147 ± 20.9 µg/mL
same,solubility,"[5]; organic solvent or mixture, 40% PEG-400/Water, 35° C.",4.4 ± 0.5 µg/mL
same,solubility,"[5]; organic solvent or mixture, 60% Ethanol/Water, 35° C.",22235 ± 7.8 µg/mL
same,solubility,"[5]; organic solvent or mixture, 60% PEG-400/Water, 35° C.",89.6 ± 1.1 µg/mL
same,solubility,"[5]; organic solvent or mixture, 80% Ethanol/Water, 35° C.",8220 ± 221 µg/mL
same,solubility,"[5]; organic solvent or mixture, 80% PEG-400/Water, 35° C.",2160 ± 89.9 µg/mL
same,solubility in water (in words),[5]; water,extremely low
same,activity in the treatment of acne and psoriasis,[6],active in the treatment of acne and psoriasis
